Several values for one entry are separate records, joined by “and”; a condition that tells them apart may be missing. Equal values may be shown once.
Assays:
HD fibroblasts (CAG)43 = test: small-pool PCR across HD repeat tract, HD primary fibroblasts GM02191; type: cell-based, human; settings: 40 days; for % Contraction / % Expansion / % Unchanged / Average repeat size: 50 uM NA
Procedure: The construction of the HT1080-(CAG)850 cell model was described previously (Sathasivam et al., 1997, Hum. Genet., 99:692-5). Briefly, HT1080 (ATCC) human fibrosarcoma cells were co-transfected with a plasmid (LC15-R) containing 800-850 (CTG)●(CAG) repeats (Nakatani et al., 2005, Nat. Chem. Biol., 1:39-43) and a plasmid encoding PhiC31 integrase. Transfection was performed with a Nucleofector (Lonza, Basel, Switzerland), and stably transfected clones were selected with puromycin. […] The HT1080-non-transcribing (CAG)850 cell model was established by transfecting a plasmid modified from pLC16 by inserting an additional SV40 polyadenylation signal downstream of the repeats (in addition to the original polyadenylation signals located upstream of the repeats), so that CAG/CTG repeats are floxed by transcription-terminator elements. The AttB-PhiC31 system has been widely used for single copy integration. […] The HT1080 model cells and an HD primary fibroblast cell line, GM09197 (Coriell Biorepository) with a large expanded allele of 180 CAG repeats and a non-expanded allele of 23 repeats (Sathasivam et al., 1997, Hum. Genet., 99:[…]), the HD primary fibroblast cell line, GM02191 (Coreill Biorepository) with an expanded allele of 43 CAG repeats and a non-expanded allele of 19 repeats, were cultured at 37° C. with 5% CO2 in Dulbecco's modified Eagle's medium supplemented with 10% fetal bovine serum and 1% penicillin/streptomycin. Cells were treated with or without continuous exposure to 50-μM NA for 30 days (HT1080 cells) or for 40 days (fibroblast cells). For experiments on non-proliferating cells, HT1080 cells were grown to confluence and then treated for the same period. WST-1 assay was performed according to the manufacturer's instructions (Roche, Basel, Switzerland). All cell lines were tested to be free of Mycoplasma. Three biological replicates were performed for each experiment.
Genomic DNA was extracted from HT1080-(CAG)850 clones and HD primary fibroblasts using the Gentra Puregene Cell Kit (Qiagen, Valencia, Calif.). The expanded (CTG)●(CAG) repeats were sized by small-pool PCR (sp-PCR) followed by Southern blot as described previously (Sathasivam et al., 1997, Hum. Genet., 99:692-5). For HT1080 models, small-pool PCR (spPCR) was performed with the input of 1.4-1.7 genome equivalents. The repeat size difference in the models is, at most, 3000 base-pairs, therefore, being strictly conservative, a bias toward amplifying the shorter allele can be possible, even under optimized PCR conditions described herein. For HD primary fibroblasts, sp-PCR & Southern blots were performed as described previously with slight modifications (Tome et al., 2013, PLoS Genet., 9:e1003280). Briefly, the PCR primers listed in Table 1 were used, and blots were hybridized with a DIG-labeled (CAG)7 locked nucleic acid probe (Nakamori et al. 2009, Neuromuscul. Disord., 19:759-62). At least 50 alleles were analyzed for each of the three experiments (more than 150 alleles for a total study). Repeat analyses are summarized in Table 2, compiled from complete small-pool-PCR datasets for each repetition of each experiment. For the histograms in FIGS. 4D, 4E, 10, 11, 5B, 5D, 5E, 14 and 15B, the Y-axis, “% of repeat population” was calculated by determining the proportion of >50 individual small-pool PCR reactions across the CAG repeat tract, that harbored a certain size of repeat product with a certain length. Cell clones were grown 30 or 40 days with or without NA (see, for example, Sathasivam et al., 1997, Hum. Genet., 99:692-5). Specifically, the histograms of repeat length distributions were from at least two different cell clones. Length distributions were determined as follows: Small-pool PCR followed by Southern blot for analysis of CAG/CTG repeat length.

HT1080-(CAG)850 cells [1] = test: cellular distribution by confocal microscopy; type: cell-based, human
Procedure: (§1) Scale bar represents 20 μm. […] The cell viability was estimated with WST-1 assays. Values represent the means of three independent measures±SD. […] Error bars indicate the SD of triplicate experiments. […] The dashed line indicates the peak CAG size. Allele lengths are grouped in bins spanning 10 repeats. More than 230 alleles were sized per group.
HT1080-(CAG)850 cells were incubated with 50-μM NBD-labeled NA for 48 hr and Cell Light Plasma Membrane-RFP, BacMam 2.0 (Life Technologies, Carlsbad, Calif.), then fixed for 15 min at RT with 4% paraformaldehyde and washed 2 times for 10 min in phosphate buffered saline (PBS). Cells were mounted with Vectashield hard-set mounting media that contains DAPI (Vector Laboratories, Burlingame, Calif.). Fluorescence images were obtained using Olympus FV1000D confocal laser scanning microscope (Olympus, Tokyo, Japan).

HT1080-(CAG)850 cells [2] = test: growth curves of cells; type: cell-based, human; settings: 50 μM NA
Description: as §1

CAG-CAG = settings: cited from earlier work
d(CAG)9 = d(CAG)9 immobilization 497 RU; cited from earlier work
[3] = single experiments Ex 1-3, cut-off ±10 repeats

naphthyridine-azaquinolone
lowest repeat length reached by contractions (HD fibroblasts (CAG)43; 50 μM NA, HD disease threshold 35 units): ≥ 20 repeats | % Contraction (HD fibroblasts (CAG)43; Total): 25.3% | % Expansion (HD fibroblasts (CAG)43; Total): 4.9% | % Unchanged (HD fibroblasts (CAG)43; Total): 69.8% | Average repeat size (HD fibroblasts (CAG)43; Total): 40.7 number of repeats | % Unchanged (HD fibroblasts (CAG)43; single experiments Ex 1-3): 67.0% and 69.2% and 73.2% | Average repeat size (HD fibroblasts (CAG)43; single experiments Ex 1-3): 40.6 number of repeats and 40.4 number of repeats and 41.0 number of repeats | % Contraction (HD fibroblasts (CAG)43; [3]): 28.4% and 25.2% and 22.3% | % Expansion (HD fibroblasts (CAG)43; [3]): 4.6% and 5.6% and 4.5% | cell permeability (HT1080-(CAG)850 cells [1]): cell-permeable and can enter the nuclei | effect on cell proliferation (growth curves) (HT1080-(CAG)850 cells [2]): lack of an effect upon cell proliferation | affinity of each NA molecule/CAG-CAG as Ka (CAG-CAG; estimated): 1.8e+06 M⁻¹ | Kd (CAG-CAG; estimated, read-out: affinity of each NA molecule/CAG-CAG as Kd): 560 nM | ratio of NA molecules to 1 CAG-CAG (CAG-CAG; previously estimated binding stoichiometry): 2 | changes in the SPR intensity on NA binding (d(CAG)9): 140 RU

Source: patent US11672786B2, “Methods of treating diseases associated with repeat instability” (The Hospital for Sick Children, priority 2016, dated 2023)
